Assay results from patent US20120016124A1, “SEROTONIN REUPTAKE INHIBITORS” (Baylor University, priority 2007, published 2012).

What was measured:
[1] = target: human serotonin transporter (SERT) (Homo sapiens, UniProt P31645); experiment: NIH-PDSP transporter binding assay, SERT (3H-Citalopram); conditions: for mean % inhibition SERT: Table 4, N=4 determinations, significant inhibition >50%, negative = stimulation of binding; for affinity for SERT: in words, compounds 1b through 7b of Tables 4 and 5
Excerpt: (§1) Biological Evaluation of selected compounds was done through the National Institutes of Health Psychoactive Drug Screening Program (NIH-PDSP). Biological evaluation of the synthesized molecules consisted of: (a) Neurotransmitter uptake assays for the human serotonin transporter (SERT), (b) Binding assays for the serotonin receptor 5-HT1A, (c) Binding assays for the serotonin receptor 5-HT2A, and (d) Comparison of the biological data obtained for the synthesized molecules with that of currently used psychotherapeutics.
(§2) All binding assays were carried out with an incubation time of 60 minutes at room temperature. All binding assays were performed in a similar manner, although the buffers used differ from assay to assay.
The assay buffer H contained 50 mM Tris-HCl, […], and 5 mM KCl, at a pH of 7.4. For the peptide receptor binding assay, filters were pre-soaked for 7 days in 0.3% PEI. To perform the assay, a 96-well plate was set up as follows:
(§3) For the 3H-ligands 1-2 nM final concentration of radioligand was used. For 125I-radioligands, 0.05-0.1 nM final concentration was used. The following components were pipetted in the following order: binding buffer, radioligand, cold unknown ligand, cold reference ligand, and membranes. The wells were incubated at room temperature for 60 minutes. At the end of the incubation, the samples were harvested onto pre-soaked (0.3% polyethyleneimine) GF/C filters using a 96-well harvester. They were then washed with 3 quick washes using ice-cold harvest buffer. The filters were removed and air dried overnight. Samples were counted in a 96-well counter using 100 μl of scintillant/well. The Ki value of the reference compound was calculated using the LIGAND Program (Munson and Rodbard, 1980). The percent inhibition was calculated using the following formula: […]

[2] = target: serotonin receptor 5-HT2A (Homo sapiens, UniProt P28223); experiment: NIH-PDSP binding assay, 5-HT2A (3H-ketanserin); conditions: for mean % inhibition 5-HT2A: Table 4, N=4 determinations, significant inhibition >50%, negative = stimulation of binding
Excerpt: as §1, §2
(§4) Table 2 below gives the (1) radioligand; (2) assay buffer; (3) unlabelled reference ligand; and (4) references to the commonly-known procedures which were used.
(§5) The assay buffer A was made up of 50 mM Tris-Cl, 0.1 mM EDTA, and 10 mM MgCl2, at a pH of 7.4. To perform the assay, a 96-well plate was set up as follows:
as §3

[3] = target: T1, serotonin receptor 5-HT1A (Homo sapiens, UniProt P08908); experiment: NIH-PDSP binding assay, 5-HT1A (3H-8-OH-DPAT); conditions: for mean % inhibition 5-HT1A: Table 4, N=4 determinations, significant inhibition >50%, negative = stimulation of binding
T1 sequence (P08908 1-422): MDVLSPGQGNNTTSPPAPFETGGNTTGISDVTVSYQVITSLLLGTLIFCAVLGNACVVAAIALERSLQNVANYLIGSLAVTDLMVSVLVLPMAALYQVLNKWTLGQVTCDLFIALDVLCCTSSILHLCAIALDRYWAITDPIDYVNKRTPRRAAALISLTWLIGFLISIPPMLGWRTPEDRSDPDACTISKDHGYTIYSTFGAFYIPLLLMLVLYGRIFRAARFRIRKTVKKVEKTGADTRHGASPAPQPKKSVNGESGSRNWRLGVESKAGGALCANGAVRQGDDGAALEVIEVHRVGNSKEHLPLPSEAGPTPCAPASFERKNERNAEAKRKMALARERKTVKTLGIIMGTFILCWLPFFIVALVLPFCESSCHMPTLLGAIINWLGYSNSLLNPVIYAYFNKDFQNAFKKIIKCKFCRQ
Excerpt: as §1, §2, §4, §5, §3

[4] = tested on: 5HT1A, 5HT2A, SERT; experiment: Preliminary Analysis of Biological Data (NIH-PDSP binding profile); conditions: in words; compounds 1b through 7b of Tables 4 and 5
Excerpt: as §1
Ten (10) of the sixteen (16) compounds synthesized were biologically evaluated. Compounds 10b, 11b and 12b were previously evaluated for their serotonin uptake ability as described in Example 5. For screening purposes, compounds 1b through 7b were analyzed for their affinity towards the serotonin 5-HT1A receptor as well as their affinity towards the 5-HT2A receptor and the SERT. Data in […] represent mean % inhibition (N=4 determinations) for compound tested at receptor subtypes. Significant inhibition is considered >50%. In cases where negative inhibition (−) is seen, this represents a stimulation of binding. Occasionally, compounds at high concentrations will non-specifically increase binding. Ki values were determined only for compounds with % inhibition>50%.

[5] = Table 8, Homologues Type II (Aminopropane Derivatives)
[6] = Table 8, Homologues Type II (Aminopropane Derivatives), — = No significant inhibition
[7] = Table 5, determined only for % inhibition >50%
[8] = Table 7, Homologues Type I (Aminoethane Derivatives)
[9] = Table 7, Homologues Type I (Aminoethane Derivatives), — = No significant inhibition

Chain of human serotonin transporter (SERT) (P31645 whole entry): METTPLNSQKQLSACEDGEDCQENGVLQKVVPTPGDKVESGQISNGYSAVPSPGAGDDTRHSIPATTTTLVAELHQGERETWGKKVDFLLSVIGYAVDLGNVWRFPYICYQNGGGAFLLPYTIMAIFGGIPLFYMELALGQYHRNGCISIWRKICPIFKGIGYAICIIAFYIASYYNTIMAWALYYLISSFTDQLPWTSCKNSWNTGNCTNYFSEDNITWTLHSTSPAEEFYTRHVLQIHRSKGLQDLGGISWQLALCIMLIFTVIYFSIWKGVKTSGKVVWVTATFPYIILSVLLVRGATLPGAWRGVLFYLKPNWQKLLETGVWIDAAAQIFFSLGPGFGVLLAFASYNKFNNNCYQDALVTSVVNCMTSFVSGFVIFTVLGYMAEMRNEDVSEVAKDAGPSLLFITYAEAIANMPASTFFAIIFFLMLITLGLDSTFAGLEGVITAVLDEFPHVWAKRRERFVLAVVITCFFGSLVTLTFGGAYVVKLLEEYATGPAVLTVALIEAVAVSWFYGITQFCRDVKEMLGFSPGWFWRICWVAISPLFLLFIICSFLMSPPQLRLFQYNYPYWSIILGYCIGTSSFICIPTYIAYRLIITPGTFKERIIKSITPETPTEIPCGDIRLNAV
Chain of serotonin receptor 5-HT2A (P28223 whole entry): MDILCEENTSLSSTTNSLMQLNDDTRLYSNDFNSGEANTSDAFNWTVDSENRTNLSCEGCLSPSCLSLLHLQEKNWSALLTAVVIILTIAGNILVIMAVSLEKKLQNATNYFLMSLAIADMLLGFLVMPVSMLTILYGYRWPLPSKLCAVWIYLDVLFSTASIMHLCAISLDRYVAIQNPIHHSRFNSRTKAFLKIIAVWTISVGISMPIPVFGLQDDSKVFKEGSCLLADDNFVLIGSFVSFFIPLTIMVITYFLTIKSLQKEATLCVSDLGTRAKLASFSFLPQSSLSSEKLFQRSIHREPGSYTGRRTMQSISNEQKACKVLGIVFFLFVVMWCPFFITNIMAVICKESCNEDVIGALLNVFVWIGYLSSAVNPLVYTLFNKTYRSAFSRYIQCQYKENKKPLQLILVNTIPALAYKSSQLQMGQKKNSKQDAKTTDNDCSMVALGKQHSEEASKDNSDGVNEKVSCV

SMILES: FC(F)(F)c1ccc(OC(CCN2CCN(c3ccccc3)CC2)c2ccccc2)cc1 (single isomer, unassigned) [Compound 17b]
- Ki [1, 5]: 761 nM
- Ki [2, 6]: 605 nM
- Ki [3, 5]: 315 nM

SMILES: Fc1ccc(OC(CN2CCN(c3ccccc3)CC2)c2ccccc2)cc1 (stereo not drawn) [Compound 1]
- mean % inhibition SERT [1]: 12.0%
- mean % inhibition 5-HT2A [2]: 61.0%
- Ki [2, 7]: 3490 nM
- melting point: 80 to 82 °C
- mean % inhibition 5-HT1A [3]: 98.0%
- Ki [3, 7]: 258 nM

SMILES: Fc1ccc(OC(CN2CCN(c3ccccc3)CC2)c2ccccc2)cc1 (stereo not drawn) [Compound 1b]
- Ki [1, 8]: > 10000 nM
- affinity for SERT [1]: low affinity
- Ki [2, 9]: 1120 nM
- dual activity towards the 5-HT2A receptor and the SERT [4]: desired dual activity towards the 5-HT2A receptor and the SERT, although low
- Ki [3, 9]: 99 nM

SMILES: FC(F)(F)c1ccc(OC(CCN2CCN(c3ccccc3)CC2)c2ccccc2)cc1 (stereo not drawn) [Compound 2b]
- mean % inhibition SERT [1]: 67.0%
- Ki [1, 7]: 1870 nM
- affinity for SERT [1]: low affinity
- mean % inhibition 5-HT2A [2]: 81.0%
- Ki [2, 7]: 195 nM
- dual activity towards the 5-HT2A receptor and the SERT [4]: desired dual activity towards the 5-HT2A receptor and the SERT, although low
- mean % inhibition 5-HT1A [3]: 91.0%
- Ki [3, 7]: 716 nM

SMILES: FC(F)(F)c1ccc(OC(CN2CCN(c3ccccc3)CC2)c2ccccc2)cc1 (stereo not drawn) [Compound 2b]
- Ki [1, 8]: > 10000 nM
- Ki [3, 9]: 392 nM

SMILES: FC(F)(F)c1ccc(OC(CN2CCN(c3cccc(Cl)c3)CC2)c2ccccc2)cc1 (stereo not drawn) [Compound 3]
- mean % inhibition SERT [1]: 22.0%
- mean % inhibition 5-HT2A [2]: 17.0%
- mean % inhibition 5-HT1A [3]: 71.0%
- Ki [3, 7]: 712 nM

SMILES: FC(F)(F)c1ccc(OC(CN2CCN(c3cccc(Cl)c3)CC2)c2ccccc2)cc1 (stereo not drawn) [Compound 3b]
- Ki [1, 8]: 4930 nM
- Ki [3, 9]: 649 nM

SMILES: FC(F)(F)c1ccc(OC(CN2CCN(c3cccc(C(F)(F)F)c3)CC2)c2ccccc2)cc1 (stereo not drawn) [Compound 4b]
- Ki [1, 8]: 4510 nM
- Ki [3, 9]: 1460 nM

SMILES: COc1ccccc1N1CCN(CC(Oc2ccc(C(F)(F)F)cc2)c2ccccc2)CC1 (stereo not drawn) [Compound 5b]
- Ki [1, 8]: ≥ 10000 nM
- Ki [2, 9]: > 10000 nM
- Ki [3, 9]: 22 nM

SMILES: CN1CCN(CC(Oc2ccc(C(F)(F)F)cc2)c2ccccc2)CC1 (stereo not drawn) [Compound 9b]
- Ki [1, 8]: 3660 nM
- Ki [2, 9]: 405 nM

SMILES: Fc1ccc2c(C3CCN(CC(Oc4ccc(C(F)(F)F)cc4)c4ccccc4)CC3)noc2c1 (stereo not drawn) [Compound 13b]
- Ki [1, 8]: 1650 nM
- Ki [2, 9]: > 10000 nM
- Ki [3, 9]: 1970 nM

SMILES: O=C(CCCN1CCN(CC(Oc2ccc(F)cc2)c2ccccc2)CC1)c1ccc(F)cc1 (stereo not drawn) [Compound 14b]
- Ki [1, 8]: 1120 nM
- Ki [2, 9]: ≥ 10000 nM
- Ki [3, 9]: 1180 nM

SMILES: O=C(CCCN1CCN(CC(Oc2ccc(C(F)(F)F)cc2)c2ccccc2)CC1)c1ccc(F)cc1 (stereo not drawn) [Compound 15b]
- Ki [1, 8]: 1380 nM
- Ki [2, 9]: 157 nM
- Ki [3, 9]: 2730 nM

SMILES: Fc1ccc(OC(CCN2CCN(c3ccccc3)CC2)c2ccccc2)cc1 (stereo not drawn) [Compound 16b]
- mean % inhibition SERT [1]: 62.0%
- Ki [1, 5]: 1130 nM
- mean % inhibition 5-HT2A [2]: 96.0%
- Ki [2, 6]: 76 nM
- mean % inhibition 5-HT1A [3]: 100.0%
- Ki [3, 5]: 9 nM

SMILES: Fc1ccc(OC(CCN2CCN(c3cccc(Cl)c3)CC2)c2ccccc2)cc1 (stereo not drawn) [Compound 18b]
- Ki [1, 5]: 289 nM
- Ki [2, 6]: 94 nM
- Ki [3, 5]: 11 nM

SMILES: FC(F)(F)c1ccc(OC(CCN2CCN(c3cccc(Cl)c3)CC2)c2ccccc2)cc1 (stereo not drawn) [Compound 19b]
- Ki [1, 5]: 357 nM
- Ki [2, 6]: 1340 nM
- Ki [3, 5]: 311 nM

SMILES: Fc1ccc(OC(CCN2CCN(c3cccc(C(F)(F)F)c3)CC2)c2ccccc2)cc1 (stereo not drawn) [Compound 20b]
- Ki [1, 5]: 330 nM
- Ki [2, 6]: 747 nM
- Ki [3, 5]: 20 nM

SMILES: FC(F)(F)c1ccc(OC(CCN2CCN(c3cccc(C(F)(F)F)c3)CC2)c2ccccc2)cc1 (stereo not drawn) [Compound 21b]
- Ki [1, 5]: 1330 nM
- Ki [3, 5]: 193 nM

SMILES: COc1ccccc1N1CCN(CCC(Oc2ccc(F)cc2)c2ccccc2)CC1 (stereo not drawn) [Compound 22b]
- Ki [1, 5]: 2440 nM
- Ki [2, 6]: 761 nM
- Ki [3, 5]: 4 nM

SMILES: COc1ccccc1N1CCN(CCC(Oc2ccc(C(F)(F)F)cc2)c2ccccc2)CC1 (stereo not drawn) [Compound 23b]
- Ki [1, 5]: 2200 nM
- Ki [2, 6]: 1420 nM
- Ki [3, 5]: 42.1 nM

SMILES: Fc1ccc(OC(CCN2CCN(c3ncccn3)CC2)c2ccccc2)cc1 (stereo not drawn) [Compound 24b]
- Ki [1, 5]: ≥ 10000 nM
- Ki [2, 6]: 853 nM
- Ki [3, 5]: 803 nM

SMILES: FC(F)(F)c1ccc(OC(CCN2CCN(c3ncccn3)CC2)c2ccccc2)cc1 (stereo not drawn) [Compound 25b]
- Ki [1, 5]: 6820 nM
- Ki [2, 6]: 1790 nM
- Ki [3, 5]: 434 nM

SMILES: CN1CCN(CCC(Oc2ccc(F)cc2)c2ccccc2)CC1 (stereo not drawn) [Compound 26b]
- Ki [1, 5]: 2900 nM
- Ki [2, 6]: 1330 nM
- Ki [3, 5]: > 10000 nM

SMILES: CN1CCN(CCC(Oc2ccc(C(F)(F)F)cc2)c2ccccc2)CC1 (stereo not drawn) [Compound 27b]
- Ki [1, 5]: 7010 nM
- Ki [2, 6]: 1740 nM
- Ki [3, 5]: 9560 nM

SMILES: O=C(c1ccc(F)cc1)C1CCN(CCC(Oc2ccc(F)cc2)c2ccccc2)CC1 (stereo not drawn) [Compound 28b]
- Ki [1, 5]: 6480 nM
- Ki [2, 6]: 69.6 nM
- Ki [3, 5]: 234 nM

SMILES: O=C(c1ccc(F)cc1)C1CCN(CCC(Oc2ccc(C(F)(F)F)cc2)c2ccccc2)CC1 (stereo not drawn) [Compound 29b]
- Ki [1, 5]: 1240 nM
- Ki [2, 6]: 73.7 nM
- Ki [3, 5]: 304 nM

SMILES: Fc1ccc(OC(CCN2CCC(c3noc4cc(F)ccc34)CC2)c2ccccc2)cc1 (stereo not drawn) [Compound 30b]
- Ki [1, 5]: 1690 nM
- Ki [2, 6]: 398 nM
- Ki [3, 5]: 8.6 nM

SMILES: Fc1ccc2c(C3CCN(CCC(Oc4ccc(C(F)(F)F)cc4)c4ccccc4)CC3)noc2c1 (stereo not drawn) [Compound 31b]
- Ki [1, 5]: 718 nM
- Ki [2, 6]: 23.2 nM
- Ki [3, 5]: 420 nM

SMILES: O=C(CCCN1CCN(CCC(Oc2ccc(F)cc2)c2ccccc2)CC1)c1ccc(F)cc1 (stereo not drawn) [Compound 32b]
- Ki [1, 5]: 1350 nM
- Ki [2, 6]: 420 nM
- Ki [3, 5]: 2640 nM

SMILES: O=C(CCCN1CCN(CCC(Oc2ccc(C(F)(F)F)cc2)c2ccccc2)CC1)c1ccc(F)cc1 (stereo not drawn) [Compound 33b]
- Ki [1, 5]: 725 nM
- Ki [2, 6]: 406 nM
- Ki [3, 5]: 5010 nM
